In patent publication US20240239790A1, “7-Morpholino-1,6-Naphthyridin-5-yl Derivatives and Pharmaceutical Compositions Thereof Useful as DNA-PK Inhibitor” (adMare Therapeutics Society, priority 2021, published 2024):
Where two headings read alike, the source gives them in different places.

Legend:
[1] = molecular target: T1, DNA-PK phosphorylation at Serine 2056 (Homo sapiens, UniProt P78527); assay: Cellular Assay for Inhibition of DNA-PK Phosphorylation at Serine 2056 in FaDu cells (sandwich ELISA, neocarzinostatin); format: cell-based; settings: pSer2056 DNA-PK, Table 3
T1 construct: FaDu cells were purchased from ATCC; host or cells: FaDu
In short: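 FaDu cells pre-treated with compound (0.3% DMSO) for 1 h, then neocarzinostatin 1 μg/mL final added for 2 h to induce DSBs. Protein-normalised lysates read by sandwich ELISA for total and pSer2056 DNA-PK; % inhibition normalised between DMSO and NCS controls, IC50 from variable-slope log(inhibitor) fit.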

[2] = system: pH2AX induction in HCT116 ATM-/- multicellular tumour spheroids; assay: Prodrug Radiation Sensitization in Multicellular Tumour Spheroids, inhibition of pH2AX induction following radiation; format: cell-based; settings: Homo sapiens, HCT-116, 20 Gy
In short: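 HCT116 and FaDu spheroids (~0.5 mm diameter), ATM-deficient lines included, in MEM/10% FBS/10 mM glucose at 37 °C under 20% vs 5% oxygen with stirring. Prodrugs 10 μM down to 3.5 nM, 20 Gy irradiation. pDNA-PK (ser 2056) or pH2AX (ser 139) scored in formalin-fixed cryosections 1 or 2 h post-radiation.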

FaDu cell line = assay: Prodrug Activation in Hypoxic Stirred Tumour Cell Suspensions; settings: 10 μM, 4 hours
[3] = 5% O2, inner layers, read-out: Prodrug 5% O2 Inner layers EC50
[4] = 5% O2, outer layers, read-out: Prodrug 5% O2 Outer layers EC50
[5] = 20% O2, outer layers, read-out: Prodrug 20% O2 Outer layers EC50

**Q.** What does the source list for `Cn1c(CNS(=O)(=O)c2cnc3cc(N4CCOCC4)nc(O[C@H]4CC[C@@H](Nc5ncc(C(F)(F)F)cn5)CC4)c3c2)cnc1[N+](=O)[O-]` [LFA2091, N-[(3-methyl-2-nitro-imidazol-4-yl)methyl]-7-morpholino-5-[4-[[5-(trifluoromethyl)pyrimidin-2-yl]amino]cyclohexoxy]-1,6-naphthyridine-3-sulfonamide]?
**A.** IC50 [1]: 10 to 30 µM; EC50 [2, 3]: 10 to 100 µM; EC50 [2, 4]: 10 to 100 µM; EC50 [2, 5]: 10 to 100 µM; Fraction of prodrug converted to active form, Hypoxic 0.2% O2 (FaDu cell line): D (D is 0 to 0.02); Fraction of prodrug converted to active form, Oxic 5% O2 (FaDu cell line): D (D is 0 to 0.02)

**Q.** `CC(NS(=O)(=O)c1cnc2cc(N3CCOCC3)nc(O[C@H]3CC[C@@H](Nc4ncc(C(F)(F)F)cn4)CC3)c2c1)c1cnc([N+](=O)[O-])n1C` (stereo partly drawn) [LFA2092, N-[1-(3-methyl-2-nitro-imidazol-4-yl)ethyl]-7-morpholino-5-[4-[[5-(trifluoromethyl)pyrimidin-2-yl]amino]cyclohexoxy]-1,6-naphthyridine-3-sulfonamide] was tested. Which IC50 [1] did it give?
**A.** 10 to 30 µM

**Q.** And the EC50 [2, 3]?
**A.** 10 to 100 µM

**Q.** And the EC50 [2, 4]?
**A.** 10 to 100 µM

**Q.** What about the EC50 [2, 5] of the same compound?
**A.** 1 to 10 µM

**Q.** And the “Fraction of prodrug converted to active form, Hypoxic 0.2% O2” value (“Fraction … Hypoxic 0.2% O2” below) (FaDu cell line)?
**A.** D (D is 0 to 0.02)

**Q.** What about the “Fraction of prodrug converted to active form, Oxic 5% O2” value (“Fraction … Oxic 5% O2” below) (FaDu cell line) of the same compound?
**A.** D (D is 0 to 0.02)

**Q.** Which IC50 [1] does the source give for `Cc1cc(C#N)nc(N[C@H]2CC[C@@H](Oc3nc(N4CCOCC4)cc4ncc(OCc5cnc([N+](=O)[O-])n5C)cc34)CC2)n1` [LFA2093, 6-methyl-2-[[4-[[3-[(3-methyl-2-nitro-imidazol-4-yl)methoxy]-7-morpholino-1,6-naphthyridin-5-yl]oxy]cyclohexyl]amino]pyrimidine-4-carbonitrile] here?
**A.** 10 to 30 µM

**Q.** What about the EC50 [2, 3] of the same compound?
**A.** 1 to 10 µM

**Q.** What about the EC50 [2, 4] of the same compound?
**A.** 1 to 10 µM

**Q.** What about the EC50 [2, 5] of the same compound?
**A.** 1 to 10 µM

**Q.** What about the “Fraction … Hypoxic 0.2% O2” value (FaDu cell line) of the same compound?
**A.** B (B is 0.05 to 0.15)

**Q.** What about the “Fraction … Oxic 5% O2” value (FaDu cell line) of the same compound?
**A.** B (B is 0.05 to 0.15)

**Q.** With `Cc1cc(C#N)nc(N[C@H]2CC[C@@H](Oc3nc(N4CCOCC4)cc4ncc(OC(C)c5cnc([N+](=O)[O-])n5C)cc34)CC2)n1` (stereo partly drawn) [LFA2094, 6-methyl-2-[[4-[[3-[1-(3-methyl-2-nitro-imidazol-4-yl)ethoxy]-7-morpholino-1,6-naphthyridin-5-yl]oxy]cyclohexyl]amino]pyrimidine-4-carbonitrile] as the compound, how does the IC50 [1] read?
**A.** 10 to 30 µM

**Q.** And the EC50 [2, 3]?
**A.** 0.5 to 1 µM

**Q.** And the EC50 [2, 4]?
**A.** 1 to 10 µM

**Q.** And the EC50 [2, 5]?
**A.** 10 to 100 µM

**Q.** And the “Fraction … Hypoxic 0.2% O2” value (FaDu cell line)?
**A.** B (B is 0.05 to 0.15)

**Q.** And the “Fraction … Oxic 5% O2” value (FaDu cell line)?
**A.** B (B is 0.05 to 0.15)

**Q.** For `Cn1c(COc2cnc3cc(N4CCOCC4)nc(O[C@H]4CC[C@@H](Nc5cncc(C(F)(F)F)n5)CC4)c3c2)cnc1[N+](=O)[O-]` [LFA2097, N-[4-[[3-[(3-methyl-2-nitro-imidazol-4-yl)methoxy]-7-morpholino-1,6-naphthyridin-5-yl]oxy]cyclohexyl]-6-(trifluoromethyl)pyrazin-2-amine], which IC50 [1] is on record?
**A.** 10 to 30 µM

**Q.** And the EC50 [2, 3]?
**A.** 10 to 100 µM

**Q.** And the EC50 [2, 4]?
**A.** 10 to 100 µM

**Q.** And the EC50 [2, 5]?
**A.** 10 to 100 µM

**Q.** And the “Fraction … Hypoxic 0.2% O2” value (FaDu cell line)?
**A.** C (C is 0.02 to 0.05)

**Q.** And the “Fraction … Oxic 5% O2” value (FaDu cell line)?
**A.** D (D is 0 to 0.02)

**Q.** Which IC50 [1] does the source give for `Cc1cc(C)nc(N[C@H]2CC[C@@H](Oc3nc(N4CCOCC4)cc4ncc(N(Cc5cnc([N+](=O)[O-])n5C)S(C)(=O)=O)cc34)CC2)n1` [LFA2098, N-[5-[4-[(4,6-dimethylpyrimidin-2-yl)amino]cyclohexoxy]-7-morpholino-1,6-naphthyridin-3-yl]-N-[(3-methyl-2-nitro-imidazol-4-yl)methyl]methanesulfonamide] here?
**A.** 0.1 to 1 µM

**Q.** What about the EC50 [2, 3] of the same compound?
**A.** 1 to 10 µM

**Q.** And the EC50 [2, 4]?
**A.** 1 to 10 µM

**Q.** What about the EC50 [2, 5] of the same compound?
**A.** 1 to 10 µM

**Q.** And the “Fraction … Hypoxic 0.2% O2” value (FaDu cell line)?
**A.** B (B is 0.05 to 0.15)

**Q.** What about the “Fraction … Oxic 5% O2” value (FaDu cell line) of the same compound?
**A.** D (D is 0 to 0.02)

**Q.** How did the IC50 [1] turn out when `CC(c1cnc([N+](=O)[O-])n1C)N(c1cnc2cc(N3CCOCC3)nc(O[C@H]3CC[C@@H](Nc4cncc(C(F)(F)F)n4)CC3)c2c1)S(C)(=O)=O` (stereo partly drawn) [LFA2099, N-[1-(3-methyl-2-nitro-imidazol-4-yl)ethyl]-N-[7-morpholino-5-[4-[[6-(trifluoromethyl)pyrazin-2-yl]amino]cyclohexoxy]-1,6-naphthyridin-3-yl]methanesulfonamide] was run?
**A.** 1 to 10 µM

**Q.** What about the EC50 [2, 3] of the same compound?
**A.** 10 to 100 µM

**Q.** What about the EC50 [2, 4] of the same compound?
**A.** 10 to 100 µM

**Q.** And the EC50 [2, 5]?
**A.** 10 to 100 µM

**Q.** What about the “Fraction … Hypoxic 0.2% O2” value (FaDu cell line) of the same compound?
**A.** B (B is 0.05 to 0.15)

**Q.** And the “Fraction … Oxic 5% O2” value (FaDu cell line)?
**A.** D (D is 0 to 0.02)

**Q.** Which results are given for `CC(c1cnc([N+](=O)[O-])n1C)N(c1cnc2cc(N3CCOCC3)nc(O[C@H]3CC[C@@H](Nc4nccnc4C#N)CC3)c2c1)S(C)(=O)=O` (stereo partly drawn) [LFA2100, N-[5-[4-[(3-cyanopyrazin-2-yl)amino]cyclohexoxy]-7-morpholino-1,6-naphthyridin-3-yl]-N-[1-(3-methyl-2-nitro-imidazol-4-yl)ethyl]methanesulfonamide]?
**A.** IC50 [1]: 10 to 30 µM; EC50 [2, 3]: 0.01 to 0.5 µM; EC50 [2, 4]: 1 to 10 µM; EC50 [2, 5]: 10 to 100 µM; Fraction of prodrug converted to active form, Hypoxic 0.2% O2 (FaDu cell line): C (C is 0.02 to 0.05); Fraction of prodrug converted to active form, Oxic 5% O2 (FaDu cell line): D (D is 0 to 0.02)

**Q.** Which results are given for `Cn1c(CN(c2cnc3cc(N4CCOCC4)nc(O[C@H]4CC[C@@H](Nc5cncc(C(F)(F)F)n5)CC4)c3c2)S(C)(=O)=O)cnc1[N+](=O)[O-]` [LFA2101, N-[(3-methyl-2-nitro-imidazol-4-yl)methyl]-N-[7-morpholino-5-[4-[[6-(trifluoromethyl)pyrazin-2-yl]amino]cyclohexoxy]-1,6-naphthyridin-3-yl]methanesulfonamide]?
**A.** IC50 [1]: 10 to 30 µM; EC50 [2, 3]: 10 to 100 µM; EC50 [2, 4]: 10 to 100 µM; EC50 [2, 5]: 10 to 100 µM; Fraction of prodrug converted to active form, Hypoxic 0.2% O2 (FaDu cell line): C (C is 0.02 to 0.05); Fraction of prodrug converted to active form, Oxic 5% O2 (FaDu cell line): D (D is 0 to 0.02)

**Q.** What does the source list for `Cn1c(CN(c2cnc3cc(N4CCOCC4)nc(O[C@H]4CC[C@@H](Nc5nccnc5C#N)CC4)c3c2)S(C)(=O)=O)cnc1[N+](=O)[O-]` [LFA2102, N-[5-[4-[(3-cyanopyrazin-2-yl)amino]cyclohexoxy]-7-morpholino-1,6-naphthyridin-3-yl]-N-[(3-methyl-2-nitro-imidazol-4-yl)methyl]methanesulfonamide]?
**A.** IC50 [1]: 10 to 30 µM; EC50 [2, 3]: 0.01 to 0.5 µM; EC50 [2, 4]: 1 to 10 µM; EC50 [2, 5]: 1 to 10 µM; Fraction of prodrug converted to active form, Hypoxic 0.2% O2 (FaDu cell line): C (C is 0.02 to 0.05); Fraction of prodrug converted to active form, Oxic 5% O2 (FaDu cell line): D (D is 0 to 0.02)

**Q.** With `Cn1c(CN(c2cnc3cc(N4CCOCC4)nc(O[C@H]4CC[C@@H](Nc5cnc(C#N)cn5)CC4)c3c2)S(C)(=O)=O)cnc1[N+](=O)[O-]` [LFA2103, N-[5-[4-[(5-cyanopyrazin-2-yl)amino]cyclohexoxy]-7-morpholino-1,6-naphthyridin-3-yl]-N-[(3-methyl-2-nitro-imidazol-4-yl)methyl]methanesulfonamide] as the compound, how does the IC50 [1] read?
**A.** 1 to 10 µM

**Q.** What about the EC50 [2, 3] of the same compound?
**A.** 0.01 to 0.5 µM

**Q.** What about the EC50 [2, 4] of the same compound?
**A.** 1 to 10 µM

**Q.** What about the EC50 [2, 5] of the same compound?
**A.** 10 to 100 µM

**Q.** What about the “Fraction … Hypoxic 0.2% O2” value (FaDu cell line) of the same compound?
**A.** B (B is 0.05 to 0.15)

**Q.** What about the “Fraction … Oxic 5% O2” value (FaDu cell line) of the same compound?
**A.** D (D is 0 to 0.02)

**Q.** How did the IC50 [1] turn out when `Cc1ccc(N[C@H]2CC[C@@H](Oc3nc(N4CCOCC4)cc4ncc(OC(C)c5cnc([N+](=O)[O-])n5C)cc34)CC2)nc1` (stereo partly drawn) [LFA2105, 5-methyl-N-[4-[[3-[1-(3-methyl-2-nitro-imidazol-4-yl)ethoxy]-7-morpholino-1,6-naphthyridin-5-yl]oxy]cyclohexyl]pyridin-2-amine] was run?
**A.** 10 to 30 µM

**Q.** And the EC50 [2, 3]?
**A.** 1 to 10 µM

**Q.** And the EC50 [2, 4]?
**A.** 1 to 10 µM

**Q.** What about the EC50 [2, 5] of the same compound?
**A.** 10 to 100 µM

**Q.** And the “Fraction … Hypoxic 0.2% O2” value (FaDu cell line)?
**A.** A (A is 0.15 to 1)

**Q.** And the “Fraction … Oxic 5% O2” value (FaDu cell line)?
**A.** D (D is 0 to 0.02)
